Test results taken from patent US12410211B2, “V1A receptor partial agonist and method of use” (PharmaIN Corporation, priority 2020, dated 2025).
Read-outs that look alike come from different tables or passages of the source. Marks after values point to notes of the source that are not given here.

Tests used:
[1] = Acute diuretic activity of Terlipressin, Tolvaptan and combinations in Wistar rats (Example 5); assay type: in vivo
Method: The animals were then treated with Terlipressin (Bachem, Torrance CA), Tolvaptan (Fisher Scientific, Waltham, MA) and combination of the two compounds at various concentrations administered subcutaneously (n=4). Test articles were Terlipressin 0.05 mg/Kg and 0.15 mg/Kg, Tolvaptan 0.3 mg/Kg, and 1.0 mg/Kg, Terlipressin 0.05 mg/Kg+Tolvaptan 0.3 mg/Kg, Terlipressin 0.05 mg/Kg+Tolvaptan 1.0 mg/Kg, Terlipressin 0.15 mg/Kg+Tolvaptan 0.3 mg/Kg, and Terlipressin 0.15 mg/Kg+1.0 mg/Kg. Furosemide (Fisher Scientific, Waltham, MA) was used as positive control and dosed at 20 mg/kg via oral gavage. Control dosed vehicle group (9% tween 80; Fisher Scientific, Waltham MA) administered subcutaneously was included and the resulting data was subtracted from individual test article data. After the dose, animals were placed in the metabolic cage (Tecniplast; Province of Varese, Italy) and urine was collected and measured at 2, 4 and 8 hours after the dosing of test articles. Urine volumes were divided by the body weight (pre-dose) times 100 to express in ml/100 g body weight.

[2] = cited from earlier work
V1a receptor = target: T1, V1a receptor (Homo sapiens, UniProt P37288); assay: V1a Human Vasopressin GPCR Cell Based Agonist Calcium Flux Assay; conditions: for Emax: read-out: V1a Highest agonist effect (% of AVP)
T1 construct: host or cells: CHO cells

[3] = Telemetric evaluation of portal vein pressure in rats with bile duct ligation (Example 9); assay type: in vivo, Sprague Dawley rats; conditions: for Percent decrease (%) in Mean Portal Vein Pressure (MPVP) from BDL baseline prior to treatment: BDL rats n = 4, 12 μg/kg subcutaneous
Method: For this study, animals (Sprague Dawley rats (240-300 g at surgery from Charles River Laboratory) were maintained at room temperatures (20 to 22° C.) with 14-hour light, 10-hour dark cycle when not performing study procedures. The mean portal vein pressure (MPVP) reduction efficacy of a peptide of Formula ([…] [SEQ ID NO. 13]; Mpa and C are disulfide bonded; represented as TA-1) was compared to terlipressin in telemetered male with Bile Duct Ligation (BDL) and Sham surgery. On Study Day 1, rats received bile duct ligation surgery and telemetry implantation. The BDL group (n=4) had two stands of silk suture tightened and tied to occlude the bile duct; the sham group (n=3) had sutures loosely tied around the bile duct so that no occlusion occurred. After recovery from surgery, all rats had their portal vein pressure monitored continuously via telemetry until Day 22. […] Terlipressin was administered through intravenous bolus into a lateral tail vein on Day 20 and 21. All animals were dosed under manual restraint. Systolic portal vein pressure and diastolic portal vein pressure were measured to calculate the Mean Portal Vein Pressure ([…] was analyzed by averaging 5 minute intervals for the first 4 hours after dose and thereafter averaging 1 hour intervals after dose until 24 hours. […] Telemetric evaluation of […] [SEQ ID NO. 13] and Terlipressin on portal vein pressure in rats with bile duct ligation. The animal room temperatures were set to maintain 20 to 22° C. A 14-hour light, 10-hour dark cycle was implemented unless interrupted by study procedures. Efficacy was assessed by evaluating mean portal vein pressure (MPVP) at different concentrations of Formula 1 and Terlipressin in telemetered male Sprague Dawley rats (240-300 g at surgery from Charles River Laboratory) with Bile Duct Ligation (BDL) and Sham surgery. On Study Day 1, rats received bile duct ligation surgery and telemetry implantation. The BDL group (n=4) had two stands of silk suture tightened and tied to occlude the bile duct; the sham group (n=3) had sutures loosely tied around the bile duct so that no occlusion occurred. After recovery from surgery, all rats had their portal vein pressure monitored continuously via telemetry until Day 22. […] Formula 1 was administered at different concentrations subcutaneously on Day 15 to 19, and Day 23; Terlipressin was administered through intravenous bolus into a lateral tail vein on Day 20 and 21. All animals were dosed under manual restraint. Systolic portal vein pressure and diastolic portal vein pressure were measured to calculate the Mean Portal Vein Pressure ([…] was analyzed by averaging 5 minute intervals for the first 4 hours after dose and thereafter averaging 1 hour intervals after dose until 24 hours.

[4] = Therapeutic index (NOAEL/NOEL): paleness, lethargy, ataxia observation in Sprague-Dawley rats (Example 7); assay type: in vivo
Summary of the method: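 Male Sprague-Dawley rats, 8–10 weeks, under isoflurane (n=3 or 6), dosed IV or SC with test articles. Paleness judged by ear colour beside untreated controls; lethargy and ataxia scored by observation. Index expressed as NOAEL/NOEL ratio.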

[5] = Acute diuretic activity of Tolvaptan and peptides of Formula (II) and (IV) in Wistar rats (Example 6); assay type: in vivo
Method: In this study, Male Wistar Rats (˜8 weeks; Envigo; Somerset, NJ) were fasted overnight (18 hours; free access to water) followed by treatment with saline at 20 ml/Kg via oral gavage to have a uniform hydration of all the animals. The animals were then treated with various concentrations of test articles administered subcutaneously (n=4) (Table 5). Control dosed vehicle group (9% tween 80; Fisher Scientific, Waltham MA) administered subcutaneously was included and the resulting data was subtracted from individual test article data. After the dose, animals were placed in the metabolic cage (Tecniplast; Province of Varese, Italy) and urine was collected and measured at 2, 4 and 8 hours after the dosing of test articles. Urine volumes were divided by the body weight (pre-dose) times 100 to express in ml/100 g body weight. […] However, at any ratio, a tolvaptan dose of about 0.3 mg/Kg (i.e., 0.3+0.05 mg/Kg) administered in rats (allometrically equivalent to about 2-7 mg/human depending on persons weight) is an ideal dose that when combined with the composition of the present disclosure provides greater than 50% of the sum of individual diuretic effect administered alone. Low dose of 0.3 mg/Kg of subcutaneous tolvaptan is considered to be 13-fold below the effective safe human dose thus providing additional advantage to patients with liver disease. This can increase mean arterial blood pressure (MAP) which is a V1a effect caused by composition of the present disclosure while maintaining significant (at least 50% of the sum of individual diuretic effect administered alone) of both.

[6] = S.C., at the Marked adverse effect dose
[7] = S.C., at the Mild adverse effect dose
[8] = peptide alone 0.015 mg/kg subcutaneous
[9] = peptide alone 0.05 mg/kg subcutaneous

T1 sequence (P37288 whole entry): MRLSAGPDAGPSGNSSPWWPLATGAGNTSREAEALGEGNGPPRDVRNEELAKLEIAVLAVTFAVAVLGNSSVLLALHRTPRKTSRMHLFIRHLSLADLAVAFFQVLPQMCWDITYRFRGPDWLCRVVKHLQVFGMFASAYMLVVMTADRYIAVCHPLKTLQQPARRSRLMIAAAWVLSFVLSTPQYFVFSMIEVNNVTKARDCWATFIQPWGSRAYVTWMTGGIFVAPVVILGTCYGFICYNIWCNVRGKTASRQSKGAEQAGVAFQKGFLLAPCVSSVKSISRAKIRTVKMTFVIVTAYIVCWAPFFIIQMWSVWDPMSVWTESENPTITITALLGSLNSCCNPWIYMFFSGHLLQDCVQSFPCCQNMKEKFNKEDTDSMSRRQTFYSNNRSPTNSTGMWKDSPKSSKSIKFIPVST

Compound: NS(=O)(=O)c1cc(C(=O)O)c(NCc2ccco2)cc1Cl [Furosemide]
- Average mL of Urine per 100 gram body weight 8 hours cumulative (n = 4) minus Vehicle group (Tween 80); (SEM) ([1]; Furosemide 20 mg/kg oral gavage (positive control)): 1.73 (0.22) mL per 100 gram body weight

Compound: NCCCC[C@H](NC(=O)[C@@H]1CCCN1C(=O)[C@@H]1CSSC[C@H](N)C(=O)N[C@@H](Cc2ccc(O)cc2)C(=O)N[C@@H](Cc2ccccc2)C(=O)N[C@@H](CCC(N)=O)C(=O)N[C@@H](CC(N)=O)C(=O)N1)C(=O)NCC(N)=O [Lysine vasopressin (LVP), Lysine vasopressin, reference compound]
- plasma half-life ([2]; in vivo): 0.833 h
- EC50 (V1a receptor; Table 3, CHO cells expressing human V1 receptor, read-out: Estimated V1a EC50 (nM), n = 2): 1.65 nM
- Emax (V1a receptor; Table 3, n = 2): 92.1%
- V1a Highest agonist effect (% of AVP); n = 2 (V1a receptor; Table 4): 92.1 % of AVP

Compound: NCC(=O)NCC(=O)NCC(=O)NCC(=O)NCC(=O)NCC(=O)NCCCC[C@H](NC(=O)[C@@H]1CCCN1C(=O)[C@@H]1CSSCCC(=O)N[C@@H](Cc2ccc(O)cc2)C(=O)N[C@@H](Cc2ccccc2)C(=O)N[C@@H](CCCC(N)=O)C(=O)N[C@@H](CC(N)=O)C(=O)N1)C(=O)NCC(N)=O [SEQ ID NO. 13, Mpa-Tyr-Phe-Hgn-Asn-Cys-Pro-Lys(X)a-Gly-NH2; (X)a = (Gly)6]
- drop in portal pressure compared to Terlipressin (41 ug/kg) ([3]; 12 ug/kg dose, BDL rats): more effective in providing a sustain drop in portal pressure
- Percent decrease (%) in Mean Portal Vein Pressure (MPVP) from BDL baseline prior to treatment ([3]; Time 1 hr): 5%
- Percent decrease (%) in Mean Portal Vein Pressure (MPVP) from BDL baseline prior to treatment ([3]; Time 4 hr): −30.5%
- Percent decrease (%) in Mean Portal Vein Pressure (MPVP) from BDL baseline prior to treatment ([3]; Time 7 hr): −10.5%
- Percent decrease (%) in Mean Portal Vein Pressure (MPVP) from BDL baseline prior to treatment ([3]; Time 20 hr): −29.75%
- Paleness (Duration, hrs; SD) [4, 6]: (>5.6)* hrs
- Paleness (Duration, hrs; SD) [4, 7]: (6.23 ± 0.06) hrs
- Paleness (Duration, hrs; SD) ([4]; S.C., at the NOAEL dose): (6.07 ± 0.08) hrs
- Paleness (Duration, hrs; SD) ([4]; S.C., at the NOEL dose): None observed
- Highest dose with no-observed effect level or paleness (NOEL) ([4]; S.C., rat): 0.003 mg/kg
- NOAEL at 24 h ([4]; male, Sprague-Dawley, in vivo, sc, S.C., rat, read-out: Highest dose with no-observed adverse effect level without lethargy (NOAEL)): 0.3 mg/kg
- Marked adverse effect (Lowest dose first showed Ataxia) ([4]; rat, in vivo, sc): 5.0 mg/kg
- Mild adverse effect (Lowest dose first showed Lethargy) ([4]; rat, in vivo, sc): 0.5 mg/kg
- Emax (V1a receptor; n = 2): 28.2%

Compound: NCCCC[C@H](NC(=O)[C@@H]1CCCN1C(=O)[C@@H]1CSSCCC(=O)N[C@@H](Cc2ccc(O)cc2)C(=O)N[C@@H](Cc2ccccc2)C(=O)N[C@@H](CCC(N)=O)C(=O)N[C@@H](CC(N)=O)C(=O)N1)C(=O)NCC(N)=O [SEQ ID NO. 32]
- Average 8 hours cumulative Urine Volume: mL per 100 gram body weight (SEM; n = 4) minus Tween 80 vehicle group ([5]; peptide alone 0.005 mg/kg subcutaneous): 0.80 (0.50) mL per 100 gram body weight
- Average 8 hours cumulative Urine Volume: mL per 100 gram body weight (SEM; n = 4) minus Tween 80 vehicle group [5, 8]: 0.86 (0.28) mL per 100 gram body weight
- Average 8 hours cumulative Urine Volume: mL per 100 gram body weight (SEM; n = 4) minus Tween 80 vehicle group [5, 9]: 0.74 (0.55) mL per 100 gram body weight
- Paleness (Duration, hrs; SD) [4, 6]: (4.79 ± 0.08) hrs
- Paleness (Duration, hrs; SD) [4, 7]: (4.45 ± 0.26) hrs
- Paleness (Duration, hrs; SD) ([4]; S.C., at the NOAEL dose): (3.54 ± 0.11) hrs
- Paleness (Duration, hrs; SD) ([4]; S.C., at the NOEL dose): None observed
- Highest dose with no-observed effect level or paleness (NOEL) ([4]; S.C., rat): 0.0005 mg/kg
- NOAEL/NOEL (therapeutic index) ([4]; S.C., rat): 20
- NOAEL ([4]; in vivo, sc, S.C., rat, read-out: Highest dose with no-observed adverse effect level without lethargy (NOAEL)): 0.01 mg/kg
- Marked adverse effect (Lowest dose first showed Ataxia) ([4]; rat, in vivo, sc): 0.1 mg/kg
- Mild adverse effect (Lowest dose first showed Lethargy) ([4]; rat, in vivo, sc): 0.03 mg/kg

Compound: Cc1ccccc1C(=O)Nc1ccc(C(=O)N2CCCC(O)c3cc(Cl)ccc32)c(C)c1 (stereo not drawn) [Tolvaptan]
- Average mL of Urine per 100 gram body weight 8 hours cumulative (n = 4) minus Vehicle group (Tween 80); (SEM) ([1]; Tolvaptan 0.3 mg/Kg subcutaneous): 0.65 (0.16) mL per 100 gram body weight
- Average mL of Urine per 100 gram body weight 8 hours cumulative (n = 4) minus Vehicle group (Tween 80); (SEM) ([1]; Tolvaptan 1.0 mg/Kg subcutaneous): 7.29 (0.46) mL per 100 gram body weight
- Average 8 hours cumulative Urine Volume: mL per 100 gram body weight (SEM; n = 4) minus Tween 80 vehicle group ([5]; Tolvaptan 0.3 mg/kg subcutaneous): 0.65 (0.16) mL per 100 gram body weight

Compound: NC(=O)CC[C@@H]1NC(=O)[C@H](Cc2ccccc2)NC(=O)[C@H](Cc2ccc(O)cc2)NC(=O)[C@@H](N)CSSC[C@@H](C(=O)N2CCC[C@H]2C(=O)N[C@@H](CCCN=C(N)N)C(=O)NCC(N)=O)NC(=O)[C@H](CC(N)=O)NC1=O [Vasopressin]
- excreted through the kidney ([2]; in vivo): 65%
- metabolized by liver and kidney vasopressinases ([2]; in vivo): 35%
- protein binding ([2]; in vivo): not protein-bound
- volume of distribution ([2]; plasma): 0.14 L/kg

Compound: NC(=O)CC[C@@H]1NC(=O)[C@H](Cc2ccccc2)NC(=O)[C@H](Cc2ccc(O)cc2)NC(=O)CCSSC[C@@H](C(=O)N2CCC[C@H]2C(=O)N[C@H](CCCN=C(N)N)C(=O)NCC(N)=O)NC(=O)[C@H](CC(N)=O)NC1=O [desmopressin]
- half-life ([2]; in vivo): 2 h

Compound: Mpa-Tyr-Phe-Gln-Asn-Cys-Pro-Lys(X)a-Gly-NH2; (X)a = (Gly)5 [SEQ ID NO. 33]
- Average 8 hours cumulative Urine Volume: mL per 100 gram body weight (SEM; n = 4) minus Tween 80 vehicle group [5, 8]: 1.11 (0.11) mL per 100 gram body weight
- Average 8 hours cumulative Urine Volume: mL per 100 gram body weight (SEM; n = 4) minus Tween 80 vehicle group [5, 9]: 1.32 (0.09) mL per 100 gram body weight
- Average 8 hours cumulative Urine Volume: mL per 100 gram body weight (SEM; n = 4) minus Tween 80 vehicle group ([5]; peptide alone 0.15 mg/kg subcutaneous): 1.85 (0.20) mL per 100 gram body weight
